{"source": "patent US6429204B1", "about": "“Method of inhibiting cancer growth” (University of Miami, priority 1997, dated 2002)", "key": {"ALVA 101": {"tested_on": "ALVA 101", "assay": "Cytotoxicity GI50 (MTT and thymidine incorporation), ALVA 101", "assay_type": "cell-based", "settings": "Homo sapiens", "description": "(§1) To confirm this observation, we compared the cytotoxicities of CMT-3 and doxycycline for a panel of common human prostate cancer cell lines. Cytotoxicity was measured using the MTT assay (see above) and a cellular thymidine incorporation assay as described by Lokeshwar et al. (1995a). The 50% growth inhibition (GI50) values obtained using both assays were identical. As shown in the data summarized in Table 3, below, CMT-3 was two- to eight-fold more cytotoxic than doxycycline.\n(§2) Growth inhibition was calculated from linear regression of the dose-response curves generated for each experiment using log(dose) vs. cell proliferation (% of control). Correlation coefficient (r) was always ≧0.95 (negative). Results are presented as Mean±SEM of at least three GI50 values calculated from each experiment."}, "DU 145": {"tested_on": "DU 145", "assay": "Cytotoxicity GI50 (MTT and thymidine incorporation), DU 145", "assay_type": "cell-based", "settings": "Homo sapiens", "description": "as §1, §2"}, "LNCaP": {"tested_on": "LNCaP", "assay": "Cytotoxicity GI50 (MTT and thymidine incorporation), LNCaP", "assay_type": "cell-based", "settings": "Homo sapiens", "description": "as §1, §2"}, "MAT LyLu": {"tested_on": "MAT LyLu", "assay": "Cytotoxicity GI50 (MTT and thymidine incorporation), MAT LyLu", "assay_type": "cell-based", "settings": "Rattus norvegicus", "description": "as §1, §2"}, "PC-3": {"tested_on": "PC-3", "assay": "Cytotoxicity GI50 (MTT and thymidine incorporation), PC-3", "assay_type": "cell-based", "settings": "Homo sapiens", "description": "as §1, §2"}, "TSU PR-1": {"tested_on": "TSU PR-1", "assay": "Cytotoxicity GI50 (MTT and thymidine incorporation), TSU PR-1", "assay_type": "cell-based", "settings": "Homo sapiens, TSU-Pr1", "description": "as §1, §2"}, "TSU-PR1 cells": {"tested_on": "TSU-PR1 cells", "assay": "Matrigel invasion assay (Boyden chamber, MTT), TSU-PR1", "assay_type": "cell-based, human", "settings": "Homo sapiens; for IC50: TSU-PR1, 48 hr, read-out: 50% inhibitory dose (IC50), Matrigel invasion", "description": "(§3) In this method, 4×10^5 tumor cells were plated on the top chamber of the Boyden chemotaxis assay chambers (Costar Transwell plates). The bottom side of the chamber was a 12 μm-pore polycarbonate filter layered with 0.5 mm thick layer of Matrigel. The bottom well contained a chemoattractant, a serum-free culture-conditioned medium from FHS 733 cells, a line of human fetal lung fibroblasts (ATCC No. HTB-157). Cancer cells (4×10^5) were plated in the top wells of the plates. Doxycycline or CMTs were diluted in a serum-free medium to 5 μg/mL, and were added to both top and bottom chambers. […] After 48 hr incubation, MTT was added to both the top and bottom wells (0.5 mg/mL), and incubation was continued for 4 hr. Wells were then emptied, and the cells from the undersides of the filter were pooled with those in the bottom wells with a filter tip. The reduced MTT (formazan) from top and bottom wells was solubilized with DMSO overnight, and absorbance (O.D.) at 515 nm was measured. The ratio of the O.D. from the bottom wells to that of the total (i.e., O.D. of top plus bottom wells) was taken as the invasive potential. […] The MTT assay procedure also normalizes the coincident inhibition due to the cytotoxic effects of the agents under investigation. Results presented are from three independent experiments."}, "Dunning MAT LyLu cells": {"tested_on": "Dunning MAT LyLu cells", "assay": "Matrigel invasion assay (Boyden chamber, MTT), MAT LyLu", "assay_type": "cell-based, rat", "description": "as §3"}, "Dunning MAT LyLu tumor": {"tested_on": "Dunning MAT LyLu tumor", "assay": "MAT LyLu tumor growth and lung metastasis, gavage from day of implant", "assay_type": "in vivo, Copenhagen rats", "description": "Tumor Generation and Treatment: Dunning MAT LyLu cells were harvested from culture flasks, and a 0.5 mL suspension containing from 2×10^5 to 2×10^6 cells/mL was inoculated into the dorsal flank of adult Copenhagen rats (Harlan Sprague Dawley, Indianapolis, Ind.). The rats weighed 250-300 g, and were 90-100 days old. Tumors were detected by palpating the skin around the site of injection starting 3 days following implant of the tumor cells (Lokeshwar et al. 1995a).\nDrug Treatment In Vivo: Doxycycline and CMT-3 were dissolved in a 2% aqueous solution of a soluble form of carboxymethyl cellulose (Sigma Cat. No. C-5678), and a fresh solution was made up daily. Rats were gavaged daily with 1 mL of the drug solution (concentrations specified below), or the vehicle (2% carboxymethyl cellulose). Tumor growth was recorded three times a week, and rats were weighed weekly. The effect of various treatments on tumor growth was monitored over time using calipers, and the volume approximated to an ellipsoid (i.e., volume=length×width×height×0.5236) (Lokeshwar et al. 1993b). Tumor growth rate was determined by regression analysis of tumor volume versus time, for each tumor-bearing rat. Mean tumor growth rate (time to reach a fixed volume) for each treatment group was then used to evaluate the statistical significance of treatment efficacy using the INSTAT statistical program (Ravitz Software, San Diego, Calif.). Rats were euthanized once the tumor volume reached ≧10 cm^3. At that time animals were necropsied, tumors and lungs were removed and fixed in Bouin's fixative. Macroscopic tumor foci on the lungs were counted under a dissecting microscope.\nCMT-3 and doxycycline were tested for antitumor activity in vivo. In this series of experiments, daily gavage of drugs was started on the same day on which tumor cells were implanted in the test animals. Tumor growth was initiated by sub cutis injection of 1×10^6 tumor cells."}, "C8161 cells": {"tested_on": "C8161 cells", "assay": "C8161 cell proliferation (doubling time)", "assay_type": "cell-based, human", "settings": "50 μg/mL; for Doubling Time: on plastic, DMSO 22 hr", "description": "Cell Culture and Maintenance: C8161 cells, a human melanoma cell line, were maintained in Dulbecco's modified Eagle's medium (DMEM; […] These cells were routinely screened for Mycoplasma contamination using the GenProbe Rapid Detection System (Fisher Scientific; Chicago, Ill.). Chemically Modified Tetracyclines: Fresh stock solutions of the chemically modified tetracycline compounds (2 mg/mL) were prepared for each experiment by hydrating in 2% dimethyl sulfoxide (DMSO)/water pH 10, then adjusting to pH 7.4 using 1.0 M HCl. […] Sigma Chem. Co.; control) or 50 μg/mL of doxycycline or the other CMTs (three wells on each plate per compound). […] The doubling time for C8161 cells in the presence of each compound was then determined and compared to the DMSO treated cells (control)."}, "[1]": {"tested_on": "C8161 human melanoma cells", "assay": "In vitro invasion assay (MICS), laminin/collagen IV/gelatin matrix-coated filter", "assay_type": "cell-based", "settings": "3, 20 and 50 μg/mL; for Percent Inhibition of invasive potential: 48 hr", "description": "The in vitro invasive potentials of the control (DMSO only) and chemically-modified tetracycline treated cells were measured using a modified Boyden chamber as previously described (Membrane Invasion Culture System, MICS). An intervening barrier consisting of a polycarbonate filter containing 10 μm pores (Osmonics, Livermore, Calif.) coated with a defined matrix of human laminin/collagen IV/gelatin (Sigma, St. Louis, Mo.) was used for these studies. […] Doxycycline or individual CMTs were then added to different wells of the chamber at 3, 20 or 50 μg/mL 2 hr post-seeding and daily during the assay. After 48 hr, the cells were removed from the lower wells and the number of invasive cells was determined and compared to the original number of cells seeded into the upper wells. Where appropriate, data were corrected for proliferation during the period of the in vitro assay."}, "[2]": {"assay": "MTS cytotoxicity assay, E-10", "settings": "human, E-10 clone of MDA-MB-231 breast carcinoma cells, percent cytotoxicity, two days", "protocol": "A panel of chemically modified tetracycline compounds and doxycycline were tested for cytotoxicity against two carcinomas: COLO 205 (a human colon carcinoma-derived cell line) and the E-10 clone of MDA-MB-231 (a human breast carcinoma-derived cell line). Cytoxicity was measured using a conventional assay for viability with a tetrazolium salt (MTS). Cells were grown in media containing the CMTs at concentrations ranging from 5 μM to 100 μM for two days. The cells were then incubated with the MTS for several hours before removal of the supernatant medium for determination of formazan, which is generated only by the viable cells. Results are expressed as percent cytotoxicity, which is simply the percent decline in measured formazan concentration in the sampled medium."}, "[3]": {"settings": "40 mg/kg daily oral gavage from day of implant"}}}
{"compound": "NC(=O)C1=C(O)CC2CC3Cc4cccc(O)c4C(=O)C3=C(O)C2(O)C1=O", "note": "(stereo not shown) [CMT-3, 6-demethyl-6-deoxy-4-de(dimethylamino)tetracycline]", "values": [{"measurement": "GI50", "setting": "ALVA 101", "result": "6.82 ± 0.75", "unit": "µM"}, {"measurement": "GI50", "setting": "DU 145", "result": "5.06 ± 1.18", "unit": "µM"}, {"measurement": "GI50", "setting": "LNCaP", "result": "5 ± 2.1", "unit": "µM"}, {"measurement": "GI50", "setting": "MAT LyLu", "result": "5.2 ± 1.9", "unit": "µM"}, {"measurement": "GI50", "setting": "PC-3", "result": "10.6 ± 2.1", "unit": "µM"}, {"measurement": "GI50", "setting": "TSU PR-1", "result": "14.7 ± 2.64", "unit": "µM"}, {"measurement": "IC50", "setting": "TSU-PR1 cells", "result": "1.7 ± 0.31", "unit": "µg/mL"}, {"measurement": "effect on invasive potential after pretreatment only", "setting": "Dunning MAT LyLu cells; 48 hour pretreatment, no drug in the invasion chamber", "result": "only a moderate effect"}, {"measurement": "inhibition of invasive/metastatic potential (Matrigel invasion)", "setting": "Dunning MAT LyLu cells; MAT LyLu, 5 μg/mL, 48 hr", "result": "equally inhibited"}, {"measurement": "primary tumor growth versus control group (regression analysis of tumor volumes)", "setting": "Dunning MAT LyLu tumor; 20 mg/kg or 40 mg/kg", "result": "no significant difference"}, {"measurement": "reduction in MTF relative to the control group", "setting": "Dunning MAT LyLu tumor; 40 mg/kg (10 mg/rat)", "result": 51, "unit": "%"}, {"measurement": "metastatic tumor foci in lungs", "setting": "Dunning MAT LyLu tumor; [3]", "result": "28.9±15.4", "unit": "MTF/rat"}, {"measurement": "time from injection of cells to 3 cm^3 tumor", "setting": "Dunning MAT LyLu tumor; control 13.57±2.12 days", "result": "14.0 ± 1.9", "unit": "days"}, {"measurement": "number of lung metastases", "setting": "Dunning MAT LyLu tumor; oral gavage daily for 21 days following implant, controls 59.5±13.9", "result": "28.9±15.4", "unit": "sites/animal"}, {"measurement": "Doubling Time", "setting": "C8161 cells", "result": 28, "unit": "h"}, {"measurement": "increase of doubling time", "setting": "C8161 cells; versus DMSO", "result": "~27", "unit": "%"}, {"measurement": "Type of Inhibition", "setting": "[1]", "result": "dose dependent"}, {"measurement": "Percent Inhibition of invasive potential", "setting": "[1]", "result": "35-74%"}, {"measurement": "cytotoxicity at 2 days, 5 µM", "setting": "[2]", "result": 0, "unit": "%"}]}
{"compound": "C[C@H]1c2cccc(O)c2C(=O)C2=C(O)[C@]3(O)C(=O)C(C(N)=O)=C(O)[C@@H](N(C)C)[C@@H]3[C@@H](O)[C@@H]21", "note": "[Doxycycline, 6α-deoxy-5-hydroxy-tetracycline, reference compound]", "values": [{"measurement": "GI50", "setting": "ALVA 101", "result": "36.6 ± 2.42", "unit": "µM"}, {"measurement": "GI50", "setting": "DU 145", "result": "43.6 ± 9.36", "unit": "µM"}, {"measurement": "GI50", "setting": "LNCaP", "result": "13.9 ± 2.97", "unit": "µM"}, {"measurement": "GI50", "setting": "MAT LyLu", "result": "20 ± 6.4", "unit": "µM"}, {"measurement": "GI50", "setting": "PC-3", "result": "36.4 ± 2.5", "unit": "µM"}, {"measurement": "GI50", "setting": "TSU PR-1", "result": "41 ± 11", "unit": "µM"}, {"measurement": "inhibition at 5 µg/mL", "setting": "TSU-PR1 cells; TSU-PR1, 5 μg/mL, 48 hr", "result": "8 ± 1.8", "unit": "%"}, {"measurement": "IC50", "setting": "TSU-PR1 cells", "result": "27 ± 4.3", "unit": "µg/mL"}, {"measurement": "inhibition at 5 µg/mL", "setting": "Dunning MAT LyLu cells; Rattus norvegicus, MAT LyLu, 5 μg/mL, 48 hr, read-out: inhibition of invasive/metastatic potential (Matrigel invasion)", "result": "68 ± 4.2", "unit": "%"}, {"measurement": "metastatic tumor foci in lungs", "setting": "Dunning MAT LyLu tumor; 20 mg/kg daily oral gavage from day of implant", "result": "39.7±17.2", "unit": "MTF/rat"}, {"measurement": "metastatic tumor foci in lungs", "setting": "Dunning MAT LyLu tumor; [3]", "result": "43.6±18.8", "unit": "MTF/rat"}, {"measurement": "Doubling Time", "setting": "C8161 cells", "result": 22, "unit": "h"}, {"measurement": "Percent Inhibition of invasive potential", "setting": "[1]", "result": "12-79%"}, {"measurement": "cytotoxicity at 2 days, 5 µM", "setting": "[2]", "result": 0, "unit": "%"}, {"measurement": "cytotoxicity at 2 days, 10 µM", "setting": "[2]; 10 μM", "result": 0, "unit": "%"}, {"measurement": "cytotoxicity at 2 days, 20 µM", "setting": "[2]; 20 μM", "result": 4.5, "unit": "%"}, {"measurement": "cytotoxicity at 2 days, 50 µM", "setting": "[2]; 50 μM", "result": 24.2, "unit": "%"}, {"measurement": "cytotoxicity at 2 days, 100 µM", "setting": "[2]; 100 μM", "result": 29.5, "unit": "%"}]}
